Results from paper PMC11836120, “A small signaling domain controls PPIP5K phosphatase activity in phosphate homeostasis” (Nature Communications, 2025).

What was measured:
[1] = target: T1, ScVip1 phosphatase domain (ScVip1^PD E991A) (Saccharomyces cerevisiae, UniProt Q06685, E991A); experiment: NMR and malachite green phosphatase assays; assay type: biochemical
T1 construct: gene VIP1; residues 536–1107
T1 sequence (Q06685 536-1107 E991A): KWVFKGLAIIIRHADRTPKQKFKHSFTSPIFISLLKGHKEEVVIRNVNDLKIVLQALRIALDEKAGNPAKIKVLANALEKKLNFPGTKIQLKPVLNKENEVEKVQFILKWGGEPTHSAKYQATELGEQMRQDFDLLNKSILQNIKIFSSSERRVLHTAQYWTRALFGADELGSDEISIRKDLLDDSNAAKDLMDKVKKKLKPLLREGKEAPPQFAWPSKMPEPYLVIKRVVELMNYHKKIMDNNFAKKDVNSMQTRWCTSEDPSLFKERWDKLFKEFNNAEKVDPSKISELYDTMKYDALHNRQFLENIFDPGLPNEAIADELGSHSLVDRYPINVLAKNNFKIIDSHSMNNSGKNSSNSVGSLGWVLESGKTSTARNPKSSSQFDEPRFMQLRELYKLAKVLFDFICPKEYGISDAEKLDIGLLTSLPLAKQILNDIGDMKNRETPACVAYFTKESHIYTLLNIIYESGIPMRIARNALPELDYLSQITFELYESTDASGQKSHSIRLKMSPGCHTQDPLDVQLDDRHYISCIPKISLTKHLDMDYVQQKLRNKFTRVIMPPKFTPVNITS

[2] = target: T2, ScVip1 kinase domain (ScVip1^KD) (Saccharomyces cerevisiae, UniProt Q06685); experiment: co-crystal structure, […] Å (crystallized with […] ADP and […] MgCl2); assay type: binding
T2 construct: gene VIP1; residues 186–522

[3] = target: T3, ScVip1 kinase-phosphatase tandem domains (ScVip1^KD-PD) (Saccharomyces cerevisiae, UniProt Q06685); experiment: HDX-MS, […] molar excess
T3 construct: gene VIP1
T3 sequence (Q06685 186-1107): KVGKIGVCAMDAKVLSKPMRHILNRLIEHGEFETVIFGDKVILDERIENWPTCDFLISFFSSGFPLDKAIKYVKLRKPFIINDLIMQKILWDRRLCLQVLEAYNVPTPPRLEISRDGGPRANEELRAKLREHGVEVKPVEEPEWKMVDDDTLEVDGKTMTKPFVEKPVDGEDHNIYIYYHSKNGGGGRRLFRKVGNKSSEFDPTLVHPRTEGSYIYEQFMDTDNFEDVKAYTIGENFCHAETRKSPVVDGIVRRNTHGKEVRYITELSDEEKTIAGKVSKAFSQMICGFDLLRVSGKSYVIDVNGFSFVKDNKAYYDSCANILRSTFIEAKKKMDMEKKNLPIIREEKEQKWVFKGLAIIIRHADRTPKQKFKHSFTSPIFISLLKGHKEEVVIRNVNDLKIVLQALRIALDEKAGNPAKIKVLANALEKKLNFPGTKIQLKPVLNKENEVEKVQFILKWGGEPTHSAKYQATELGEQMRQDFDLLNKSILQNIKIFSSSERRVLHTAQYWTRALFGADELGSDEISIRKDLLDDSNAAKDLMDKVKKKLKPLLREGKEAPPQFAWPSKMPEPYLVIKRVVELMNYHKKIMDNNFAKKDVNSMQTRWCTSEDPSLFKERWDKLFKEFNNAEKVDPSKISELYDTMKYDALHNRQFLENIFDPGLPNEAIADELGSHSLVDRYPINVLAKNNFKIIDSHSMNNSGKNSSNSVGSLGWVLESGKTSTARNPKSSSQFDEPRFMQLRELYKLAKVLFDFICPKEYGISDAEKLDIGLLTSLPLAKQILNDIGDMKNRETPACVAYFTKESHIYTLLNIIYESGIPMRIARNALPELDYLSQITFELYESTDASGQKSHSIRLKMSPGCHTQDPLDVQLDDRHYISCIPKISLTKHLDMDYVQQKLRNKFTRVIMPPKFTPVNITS

[4] = target: T4, ScVip1 phosphatase domain (ScVip1^PD) (Saccharomyces cerevisiae, UniProt Q06685); experiment: NMR time course of […],5-InsP8 hydrolysis; assay type: biochemical
T4 construct: gene VIP1; residues 536–1107
T4 sequence (Q06685 536-1107): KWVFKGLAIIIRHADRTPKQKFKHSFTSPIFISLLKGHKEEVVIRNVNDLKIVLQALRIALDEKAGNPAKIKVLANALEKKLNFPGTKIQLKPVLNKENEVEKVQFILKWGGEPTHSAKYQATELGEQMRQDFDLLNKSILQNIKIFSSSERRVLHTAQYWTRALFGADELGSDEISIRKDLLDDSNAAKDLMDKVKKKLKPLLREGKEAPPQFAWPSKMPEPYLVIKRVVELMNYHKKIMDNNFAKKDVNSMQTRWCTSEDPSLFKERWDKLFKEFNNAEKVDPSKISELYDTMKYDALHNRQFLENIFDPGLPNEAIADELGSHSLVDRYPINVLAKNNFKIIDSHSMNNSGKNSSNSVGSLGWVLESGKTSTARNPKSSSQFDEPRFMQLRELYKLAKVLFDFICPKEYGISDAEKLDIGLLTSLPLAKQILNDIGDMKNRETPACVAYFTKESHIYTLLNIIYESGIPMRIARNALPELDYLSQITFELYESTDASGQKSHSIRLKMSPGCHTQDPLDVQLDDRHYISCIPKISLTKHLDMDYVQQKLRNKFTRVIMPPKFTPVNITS

[5] = substrate: O=P(O)(O)O[C@@H]1[C@@H](OP(=O)(O)O)[C@@H](OP(=O)(O)O)[C@@H](OP(=O)(O)OP(=O)(O)O)[C@H](OP(=O)(O)O)[C@H]1OP(=O)(O)O; experiment: malachite green and NMR phosphatase assays, Michaelis-Menten KM; assay type: biochemical, Saccharomyces cerevisiae
[6] = substrate: O=P(O)(O)O[C@@H]1[C@@H](OP(=O)(O)O)[C@H](OP(=O)(O)OP(=O)(O)O)[C@@H](OP(=O)(O)O)[C@H](OP(=O)(O)OP(=O)(O)O)[C@@H]1OP(=O)(O)O; experiment: as above; assay type: biochemical, Saccharomyces cerevisiae; conditions: phosphatase active site (RHxxR motif) and GAF-domain substrate channel

Molecule: O=P(O)(O)O[C@@H]1[C@@H](OP(=O)(O)O)[C@@H](OP(=O)(O)O)[C@@H](OP(=O)(O)OP(=O)(O)O)[C@H](OP(=O)(O)O)[C@H]1OP(=O)(O)O [1-InsP7]
- NMR and malachite green phosphatase assays [1]: Glu991 to Ala mutant readily accepts 1-InsP7 as a substrate in both NMR and malachite green-based phosphatase assays

Molecule: Nc1ncnc2c1ncn2[C@@H]1O[C@H](COP(=O)(O)OP(=O)(O)O)[C@@H](O)[C@H]1O [ADP]
- co-crystal structure, 1.18 Å (crystallized with 5 mM ADP and 20 mM MgCl2) [2]: The structure of ScVip1^KD in complex with adenosine diphosphate revealed the typical ATP-grasp fold and substrate binding sites

Molecule: Nc1ncnc2c1ncn2[C@@H]1O[C@H](CO[P@](=O)(O)O[P@](=O)(O)NP(=O)(O)O)[C@@H](O)[C@H]1O [AMPPNP, AMP-PNP]
- HDX-MS, 100-fold molar excess [3]: Addition of an ATP substrate analog reveals additional protected regions in the vicinity of the active site of the kinase domain

Molecule: O=P(O)(O)O [inorganic phosphate]
- NMR time course of 1,5-InsP8 hydrolysis [4]: ScVip1^PD is inhibited by Pi in a concentration-dependent manner, as inferred from NMR-based assays

B1: ScVip1 phosphatase domain (ScVip1^PD) (Saccharomyces cerevisiae S288C) (protein)
chain: KWVFKGLAIIIRHADRTPKQKFKHSFTSPIFISLLKGHKEEVVIRNVNDLKIVLQALRIALDEKAGNPAKIKVLANALEKKLNFPGTKIQLKPVLNKENEVEKVQFILKWGGEPTHSAKYQATELGEQMRQDFDLLNKSILQNIKIFSSSERRVLHTAQYWTRALFGADELGSDEISIRKDLLDDSNAAKDLMDKVKKKLKPLLREGKEAPPQFAWPSKMPEPYLVIKRVVELMNYHKKIMDNNFAKKDVNSMQTRWCTSEDPSLFKERWDKLFKEFNNAEKVDPSKISELYDTMKYDALHNRQFLENIFDPGLPNEAIADELGSHSLVDRYPINVLAKNNFKIIDSHSMNNSGKNSSNSVGSLGWVLESGKTSTARNPKSSSQFDEPRFMQLRELYKLAKVLFDFICPKEYGISDAEKLDIGLLTSLPLAKQILNDIGDMKNRETPACVAYFTKESHIYTLLNIIYESGIPMRIARNALPELDYLSQITFELYESTDASGQKSHSIRLKMSPGCHTQDPLDVQLDDRHYISCIPKISLTKHLDMDYVQQKLRNKFTRVIMPPKFTPVNITS
notes: residues 536–1107
- Km [5]: 70 µM
- Km [6]: 45 µM
